The compounds below were run on MCF7 cells (assay: Anti-proliferation (viability) of MCF7 cells (Table 7, FIG. 2B)). Details: Homo sapiens, MCF7, MCF7 cells, 3-6 days, 10-point serial dilution; read-out: GI IC50 in MCF-7.
Type: cell-based
Compound CC(=O)c1c(C)c2cnc(Nc3ccc(N4CCN(C(CC(=O)N5CC6(CC(Nc7nc(NC(C)C)ccc7C(=O)Nc7cc(C)n(C)n7)C6)C5)C(F)(F)F)CC4)cn3)nc2n(C2CCCC2)c1=O (stereo not shown) [CPD-433, 2-((2-(3-(4-(6-((6-acetyl-8-cyclopentyl-5-methyl-7-oxo-7,8-dihydropyrido[2,3-d]pyrimidin-2-yl)amino)pyridin-3-yl)piperazin-1-yl)-4,4,4-trifluorobutanoyl)-2-azaspiro[3.3]heptan-6-yl)amino)-N-(1,5-dimethyl-1H-pyrazol-3-yl)-6-(isopropylamino)nicotinamide] has an IC50 of under 50 nM.
CNc1ccc(C(=O)Nc2ccc(N(C)C)nn2)c(NC2CC3(C2)CC(C(=O)N2CC(C4CCN(c5ccc(Nc6ncc7c(C)c(C(C)=O)c(=O)n(C8CCCC8)c7n6)nc5)CC4)C2)C3)n1 (stereo not shown) [CPD-376, 2-((6-(3-(1-(6-((6-acetyl-8-cyclopentyl-5-methyl-7-oxo-7,8-dihydropyrido[2,3-d]pyrimidin-2-yl)amino)pyridin-3-yl)piperidin-4-yl)azetidine-1-carbonyl)spiro[3.3]heptan-2-yl)amino)-N-(6-(dimethylamino)pyridazin-3-yl)-6-(methylamino)nicotinamide] was tested, and the IC50 was over 100 nM.
CCc1nc(NC(=O)c2ccc(NC)nc2NC2CC3(CC(NC(=O)CN4CCN(c5ccc(Nc6ncc7c(C)c(C(C)=O)c(=O)n(C8CCCC8)c7n6)nc5)CC4)C3)C2)cn1C (stereo not shown) [CPD-308, 2-((6-(2-(4-(6-((6-acetyl-8-cyclopentyl-5-methyl-7-oxo-7,8-dihydropyrido[2,3-d]pyrimidin-2-yl)amino)pyridin-3-yl)piperazin-1-yl)acetamido)spiro[3.3]heptan-2-yl)amino)-N-(2-ethyl-1-methyl-1H-imidazol-4-yl)-6-(methylamino)nicotinamide] was tested, and the IC50 was over 100 nM.
With [2H]C([2H])([2H])Nc1ccc(C(=O)Nc2cc(C)n(C)n2)c(NC2CC3(C2)CN(C(=O)CC(N2CCN(c4ccc(Nc5ncc6c(C)c(C(C)=O)c(=O)n(C7CCCC7)c6n5)nc4)CC2)C(F)(F)F)C3)n1 (stereo not shown) [CPD-434, 2-((2-(3-(4-(6-((6-acetyl-8-cyclopentyl-5-methyl-7-oxo-7,8-dihydropyrido[2,3-d]pyrimidin-2-yl)amino)pyridin-3-yl)piperazin-1-yl)-4,4,4-trifluorobutanoyl)-2-azaspiro[3.3]heptan-6-yl)amino)-N-(1,5-dimethyl-1H-pyrazol-3-yl)-6-((methyl-d3)amino)nicotinamide] the IC50 was under 50 nM.
With CC(=O)c1c(C)c2cnc(Nc3ccc(N4CCC5(CC4)CC5C(=O)NC4CC5(C4)CC(Nc4nc(NC(C)C)ccc4C(=O)Nc4cc(C)n(C)n4)C5)cn3)nc2n(C2CCCC2)c1=O (stereo not shown) [CPD-451, 6-(6-((6-acetyl-8-cyclopentyl-5-methyl-7-oxo-7,8-dihydropyrido[2,3-d]pyrimidin-2-yl)amino)pyridin-3-yl)-N-(6-((3-((1,5-dimethyl-1H-pyrazol-3-yl)carbamoyl)-6-(isopropylamino)pyridin-2-yl)amino)spiro[3.3]heptan-2-yl)-6-azaspiro[2.5]octane-1-carboxamide] the IC50 was under 50 nM.
CC(=O)c1c(C)c2cnc(Nc3ccc(N4CCN(CC(=O)NC5CC6(C5)CC(Nc5nc(CC(C)C)ccc5C(=O)Nc5cn(C)c(C7CC7)n5)C6)CC4)cn3)nc2n(C2CCCC2)c1=O (stereo not shown) [CPD-318, 2-((6-(2-(4-(6-((6-acetyl-8-cyclopentyl-5-methyl-7-oxo-7,8-dihydropyrido[2,3-d]pyrimidin-2-yl)amino)pyridin-3-yl)piperazin-1-yl)acetamido)spiro[3.3]heptan-2-yl)amino)-N-(2-cyclopropyl-1-methyl-1H-imidazol-4-yl)-6-isobutylnicotinamide] showed an IC50 of over 100 nM.
For CC(=O)c1c(C)c2cnc(Nc3ccc(N4CCC(N(C)CC(=O)N5CC(Nc6nc(NC(C)C)ccc6C(=O)Nc6ccc(N(C)C)nn6)C5)CC4)cn3)nc2n(C2CCCC2)c1=O [CPD-427, 2-((1-(N-(1-(6-((6-acetyl-8-cyclopentyl-5-methyl-7-oxo-7,8-dihydropyrido[2,3-d]pyrimidin-2-yl)amino)pyridin-3-yl)piperidin-4-yl)-N-methylglycyl)azetidin-3-yl)amino)-N-(6-(dimethylamino)pyridazin-3-yl)-6-(isopropylamino)nicotinamide], the IC50 was under 50 nM.

— patent US20260297081A1, “COMPOUNDS AND METHODS OF TREATING CANCERS” (Cullgen Inc., priority 2023, published 2026)
